“And” between values parts separate entries of the source, which are not always exact repeats. Identical values can stand only once.
Experiments:
[1] = test system: Streptococcus mutans MT 8148; assay: Acid production by Streptococcus mutans (Example 9), strain MT 8148; format: cell-based; details: 10 ml of 5% solution added to 2 ml cell suspension, 37° C., FIG. 6
Experimental: (§1) Dental caries causative bacteria (Streptococcus mutans) MT 8148 and 6715 strains provided by a microbial lineage storage laboratory of The Institute of Physical Chemical Research (Riken) were cultured on a brain heart infusion broth medium overnight and then cells were collected by centrifugation. The cells were washed twice with a phosphate buffered (5 mM) physiological saline solution (pH 7.0) and then suspended in the same saline solution. Ten milliliters each of 5% DFA III, sorbitol, palatinose, xylitol, and sucrose solutions were added to 2 ml of this concentrated cell suspension. Immediately, reaction was carried out at 37° C. and then change with time in pH of each reaction mixture was measured.

[2] = test system: small intestines (jejunum and ileum) and large intestines (cecum and colon) mucous membrane specimen; assay: Magnesium absorption in Ussing chamber; design: species or system rat; details: DFA III 0, 1, 10, 100 mM on mucous membrane side, 37° C., 30 minutes, FIG. 1
Experimental: Acceleration of magnesium absorption by DFA III was confirmed by using an Ussing chamber as follows.
In this experiment, 7 to 8 weeks old Sprague-Dawley male rats (with an average body weight of about 260 g) were used.
The rats were purchased at 6 weeks of age (Japan SLC) and fed on a commercial solid feed (CE-2, Japan CLEA) until the start of the experiment.
On the day of the experiment, rats were injected intraperitoneally with sodium pentobarbital and the small intestines (cejunum and ileum) and the large intestines (cecum and colon) were extracted under the anaesthetization. Contents of each of the intestines were removed, the intestines were opened, and the serous membrane and the layer of smooth muscle were peeled off to prepare a specimen comprising the mucous membrane and submucosal tissue, which was then loaded onto an Ussing chamber (with an effective area of 0.67 cm^2).
Separately, a buffer solution for the mucous membrane side and a buffer solution for serous membrane side were prepared. The buffer solution for mucous membrane side was basically comprised of the following ingredients. […]
After the incubation was completed, the solution of serous membrane side was recovered and the Mg concentration in the solution was measured using a commercial kit (Wako Pure Chemicals). […]

[3] = test system: serum osteocalcin; assay: Bone formation in human: serum osteocalcin, DFA III with calcium carbonate (Example 5); format: in vivo; details: 1 g DFA III and 0.25 g calcium carbonate 3 times a day for 2 weeks vs calcium carbonate alone; fourteen healthy adult males; FIG. 5
Experimental: Fourteen healthy adult males were administered with 1 g of DFA III and 0.25 g of calcium carbonate or 0.25 g of placebo (calcium carbonate) 3 times a day for 2 weeks to study the change in serum osteocalcin concentration.

[4] = Effectiveness on defecation in human; format: in vivo; details: 3 g once a day for one month; for Feeling of defecation: Much better (number of subjects) / Feeling of defecation: No change (number of subjects) / Feeling of defecation: Slightly better (number of subjects) / Feeling of defecation: Slightly worse (number of subjects) / Feeling of defecation: Worse (number of subjects) / Stool properties, change observed: Constipation (worse after ingestion; number of subjects) / Stool properties, change observed: Normal stool (number of subjects) / Stool properties, change observed: Soft stool (number of subjects) / Stool properties, change observed: Solid stool (number of subjects) / Stool properties: No change (number of subjects): fifty adults; for Stool properties, change observed: Diarrhea (number of subjects): fifty adults with tendency of constipation
Experimental: Fifty adults who were healthy but aware of their poor stool frequency and tendency of constipation were given with 3 g of DFA III, 3 g of melibiose or 3 g of placebo (starch) once a day for one month. The defecation condition was recorded and stool properties and feeling of defecation were studied.

[5] = test system: serum osteocalcin; assay: Bone formation in human: serum osteocalcin, DFA III alone (Example 6); format: in vivo; details: 3 g DFA III 3 times a day for 2 weeks
Experimental: Twenty-three healthy adult males and females on normal diet were administered with 3 g of DFA III 3 times a day for 2 weeks to study the change in serum osteocalcin concentration.

[6] = test system: Streptococcus mutans MT 8148; assay: Acid production by Streptococcus mutans, DFA and palatinose (Example 10), strain MT 8148; format: cell-based; details: 10 ml of 1% solution added to 2 ml cell suspension, 37° C., FIG. 7
Experimental: as §1, with “a 1% palatinose solution, 1%” for “5%”, “a 1% palatinose solution with 1% DFA III added” for “sorbitol, palatinose, xylitol, and sucrose solutions”

[7] = Diuretic test using DFA III; format: in vivo, human
Text: DFA III was made into granules to make a granular food product. Since granulation was possible without excipient, the DFA content was 100%. Six healthy males were given with 1 g/day of this granular food product together with water consecutively for 1 week in the first period of the test. Then, after a week of the washout period, the same 6 healthy subjects were given with 1 g/day of sugar together with water consecutively for 1 week in the second period of the test.
During the test periods, all subjects lived under the same environment, doing the same level of exercise and taking the same amount of diet and drinking water. The whole volume of urine excreted during the test periods was recovered and the volume was measured to obtain a daily average urine volume to compare the two test periods.

[8] = test system: serum osteocalcin; assay: Bone formation in human: serum osteocalcin, DFA III with calcium lactate (Example 4); format: in vivo; details: 3 g DFA III and 0.77 g calcium lactate 3 times a day for 1 week vs calcium lactate alone; six healthy adult males; FIG. 4
Experimental: Six healthy adult males were administered with 3 g of DFA III and 0.77 g of calcium lactate or 0.77 g of placebo (calcium lactate) 3 times a day for 1 week to study the change in serum osteocalcin concentration.

[9] = test system: small intestines (jejunum and ileum) and large intestines (cecum and colon) mucous membrane specimen; assay: Zinc absorption in Ussing chamber; design: species or system rat; details: DFA III 0 to 100 mM, FIG. 2
[10] = test system: small intestines (jejunum and ileum) and large intestines (cecum and colon) mucous membrane specimen; assay: Copper absorption in Ussing chamber; design: species or system rat; details: DFA III 0 to 100 mM, FIG. 3
[11] = test system: mice; assay: Acute toxicity test in mice; format: in vivo; details: 10 days, 1000 mg/kg of oral administration
Text: Further, DFA, an effective component of the invention, has no problem in its safety.

## OC[C@H]1O[C@@](CO)(O[C@H]2O[C@H](CO)[C@@H](O)[C@H](O)[C@H]2O)[C@@H](O)[C@@H]1O [sucrose]
[1]
  acid production (change with time in pH of reaction mixture): evidently lowered the pH

## OC[C@H]1O[C@@]2(CO[C@]3(CO)O[C@H](CO)[C@@H](O)[C@@H]3O2)[C@@H](O)[C@@H]1O [DFA III, difructose anhydride III]
[2]
  Mg absorption (net rate, mucous to serous membrane side): evidently increased
[3]
  level of osteocalcin (serum), change: increased more
[4]
  Feeling of defecation: Much better (number of subjects): 23
  Feeling of defecation: No change (number of subjects): 0
  Feeling of defecation: Slightly better (number of subjects): 27
  Feeling of defecation: Slightly worse (number of subjects): 0
  Feeling of defecation: Worse (number of subjects): 0
  Stool properties, change observed: Constipation (worse after ingestion; number of subjects): 0
  Stool properties, change observed: Normal stool (number of subjects): 39
  Stool properties, change observed: Soft stool (number of subjects): 7
  Stool properties, change observed: Solid stool (number of subjects): 3
  Stool properties: No change (number of subjects): 0
  Stool properties, change observed: Diarrhea (number of subjects): 0
[5]; no added calcium
  level of osteocalcin, change by ingestion: increased
[5]; 23 healthy adults on normal diet, Average ± SD
  Serum osteocalcin concentration, After ingestion: 5.7 ± 1.5 ng/mL
[5]; 23 healthy adults on normal diet, Average ± SD, *p < 0.1
  Serum osteocalcin concentration, Before ingestion: 7.0 ± 2.0* ng/ml
[6]
  acid production (change with time in pH of reaction mixture): almost no acid was produced
[7]; 1 g/day DFA III granular food product with water for 1 week, individual subjects A-F, healthy males
  Average daily urine volume: 2600 mL and 2950 mL and 2560 mL and 2850 mL and 3010 mL and 2050 mL
[7]; 1 g/day for 1 week
  abnormal subjective findings: no abnormal subjective findings
[7]; all individual subjects, DFA III 1 g/day vs sugar 1 g/day
  average daily urine volume, first vs second test period: evidently greater
[7]; first test period (DFA III) vs second test period (sugar)
  biochemical blood tests (liver function, renal function, blood pressure, blood cell counts, total Chol, TG): the same
[8]
  level of osteocalcin (serum), change: increased more
[9]
  Zn absorption (net rate, mucous to serous membrane side): evidently increased
[1]
  acid production (change with time in pH of reaction mixture): almost no acid
[10]
  Cu absorption (net rate, mucous to serous membrane side): evidently increased
[11]
  acute toxicity (death): no death

## OC[C@H]1O[C@@](CO)(O[C@H]2O[C@H](CO)[C@@H](O)[C@H](O)[C@H]2O)[C@@H](O)[C@@H]1O [sugar, reference compound]
[7]; 1 g/day sugar with water for 1 week after 1 week washout, same subjects A-F
  Average daily urine volume: 1620 mL and 1760 mL and 1650 mL and 1250 mL and 1850 mL and 1520 mL

## OC[C@H]1O[C@H](OC[C@H]2OC(O)(CO)[C@@H](O)[C@@H]2O)[C@H](O)[C@@H](O)[C@@H]1O (stereo partly shown) [palatinose, reference compound]
[6]
  acid production (change with time in pH of reaction mixture): acid was produced
[1]
  acid production (change with time in pH of reaction mixture): almost no acid

## OC[C@H]1O[C@H](OCC2O[C@@H](O)[C@H](O)[C@@H](O)[C@@H]2O)[C@H](O)[C@@H](O)[C@H]1O (stereo partly shown) [melibiose]
[4]
  Feeling of defecation: Much better (number of subjects): 22
  Feeling of defecation: No change (number of subjects): 0
  Feeling of defecation: Slightly better (number of subjects): 28
  Feeling of defecation: Slightly worse (number of subjects): 0
  Feeling of defecation: Worse (number of subjects): 0
  Stool properties, change observed: Constipation (worse after ingestion; number of subjects): 0
  Stool properties, change observed: Normal stool (number of subjects): 40
  Stool properties, change observed: Soft stool (number of subjects): 8
  Stool properties, change observed: Solid stool (number of subjects): 2
  Stool properties: No change (number of subjects): 0
  Stool properties, change observed: Diarrhea (number of subjects): 0

## OC[C@@H](O)[C@@H](O)[C@H](O)[C@@H](O)CO [sorbitol]
[1]
  acid production (change with time in pH of reaction mixture): almost no acid

## OC[C@@H](O)[C@H](O)[C@@H](O)CO [xylitol]
[1]
  acid production (change with time in pH of reaction mixture): almost no acid
